# In US20220112187A1, “PYRAZOLOPYRIDINE AMINE COMPOUNDS FOR THE TREATMENT OF AUTOIMMUNE DISEASE” (Hoffmann-La Roche Inc., priority 2018, published 2022):
# pIC50: −log10 of the molar value.
# Biological target: T1, human TLR7 (Homo sapiens, UniProt Q9NYK1)
# T1 sequence (Q9NYK1 27-1049): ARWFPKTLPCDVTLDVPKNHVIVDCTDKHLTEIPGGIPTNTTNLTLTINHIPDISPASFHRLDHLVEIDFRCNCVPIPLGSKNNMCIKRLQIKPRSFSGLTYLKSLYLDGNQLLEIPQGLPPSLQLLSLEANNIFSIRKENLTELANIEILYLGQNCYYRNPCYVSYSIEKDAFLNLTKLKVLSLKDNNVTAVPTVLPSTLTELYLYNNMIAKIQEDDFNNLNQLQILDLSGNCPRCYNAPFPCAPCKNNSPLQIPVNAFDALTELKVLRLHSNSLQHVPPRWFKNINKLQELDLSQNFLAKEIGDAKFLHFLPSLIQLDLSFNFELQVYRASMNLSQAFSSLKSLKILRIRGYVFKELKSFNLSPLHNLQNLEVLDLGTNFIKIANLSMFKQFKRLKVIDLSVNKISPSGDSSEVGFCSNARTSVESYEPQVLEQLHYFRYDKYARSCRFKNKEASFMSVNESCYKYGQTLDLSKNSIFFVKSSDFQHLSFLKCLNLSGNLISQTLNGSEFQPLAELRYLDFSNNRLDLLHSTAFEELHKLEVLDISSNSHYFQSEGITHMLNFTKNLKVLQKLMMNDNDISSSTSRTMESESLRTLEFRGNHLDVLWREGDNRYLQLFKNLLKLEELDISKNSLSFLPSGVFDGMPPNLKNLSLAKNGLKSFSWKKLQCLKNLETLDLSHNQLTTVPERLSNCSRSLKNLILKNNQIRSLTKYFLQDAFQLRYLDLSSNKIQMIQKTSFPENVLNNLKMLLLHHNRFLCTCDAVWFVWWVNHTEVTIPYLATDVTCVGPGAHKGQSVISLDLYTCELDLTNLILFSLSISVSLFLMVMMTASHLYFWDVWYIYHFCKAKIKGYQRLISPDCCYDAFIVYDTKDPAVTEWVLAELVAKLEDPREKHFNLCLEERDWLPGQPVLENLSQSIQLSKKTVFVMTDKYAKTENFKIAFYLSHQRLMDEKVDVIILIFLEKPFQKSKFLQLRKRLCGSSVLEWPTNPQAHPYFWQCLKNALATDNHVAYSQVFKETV
# Test: HEK293-Blue-hTLR-7 cells assay (SEAP reporter, R848 stimulation)
# Type: cell-based
# Details: HEK293-Blue-hTLR7 cells, R848 ligand, 20 hrs incubation
# From the text: A stable HEK293-Blue-hTLR-7 cell line was purchased from InvivoGen (Cat. #: hkb-htlr7, San Diego, Calif., USA). These cells were originally designed for studying the stimulation of human TLR7 by monitoring the activation of NF-κB. A SEAP (secreted embryonic alkaline phosphatase) reporter gene was placed under the control of the IFN-β minimal promoter fused to five NF-κB and AP-1-binding sites. The SEAP was induced by activating NF-κB and AP-1 via stimulating HEK-Blue hTLR7 cells with TLR7 ligands. Therefore the reporter expression was declined by TLR7 antagonist under the stimulation of a ligand, such as R848 (Resiquimod), for incubation of 20 hrs. The cell culture supernatant SEAP reporter activity was determined using QUANTI-Blue™ kit (Cat. #: rep-qb1, Invivogen, San Diego, Ca, USA) at a wavelength of 640 nm, a detection medium that turns purple or blue in the presence of alkaline phosphatase.
# HEK293-Blue-hTLR7 cells were incubated at a density of 250,000˜450,000 cells/mL in a volume of 170 μL in a 96-well plate in Dulbecco's Modified Eagle's medium (DMEM) containing 4.5 g/L glucose, 50 U/mL penicillin, […], […], 2 mM L-glutamine, 10% (v/v) heat-inactivated fetal bovine serum with addition of 20 μL test compound in a serial dilution in the presence of final DMSO at 1% and 10 μL of 20 uM R848 in above DMEM, perform incubation under 37° C. in a CO2 incubator for 20 hrs. Then 20 μL of the supernatant from each well was incubated with 180 μL Quanti-blue substrate solution at 37° C. for 2 hrs and the absorbance was read at 620˜655 nm using a spectrophotometer. The signalling pathway that TLR7 activation leads to downstream NF-κB activation has been widely accepted, and therefore similar reporter assay was modified for evaluating TLR7 antagonist.
row,pIC50,SMILES
1,6.89,"C[C@@H]1CN(c2ccc(C#N)n3nccc23)C[C@H](CN2CCC3(CCCNC3)CC2)O1 [Example 27, 4-[(2S,6R)-2-(2,9-diazaspiro[5.5]undecan-9-ylmethyl)-6-methyl-morpholin-4-yl]pyrazolo[1,5-a]pyridine-7-carbonitrile]"
2,7.36,"CC1CN(C[C@H]2CN(c3ccc(C#N)n4nccc34)C[C@@H](C)O2)CCN1 (stereo partly drawn) [Example 28, 4-[(2R,6S)-2-methyl-6-[(3-methylpiperazin-1-yl)methyl]morpholin-4-yl]pyrazolo[1,5-a]pyridine-7-carbonitrile]"
3,7.12,"C[C@@H]1CN(c2ccc(C#N)n3nccc23)C[C@H](CN2CCC(C)(N)CC2)O1 [Example 29, 4-[(2S,6R)-2-[(4-amino-4-methyl-1-piperidyl)methyl]-6-methyl-morpholin-4-yl]pyrazolo[1,5-a]pyridine-7-carbonitrile]"
4,7.34,"C[C@@H]1CN(c2ccc(C#N)n3nccc23)C[C@H](CN2CC3CCC2CN3)O1 (stereo partly drawn) [Example 30, 4-[(2S,6R)-2-(2,5-diazabicyclo[2.2.2]octan-2-ylmethyl)-6-methyl-morpholin-4-yl]pyrazolo[1,5-a]pyridine-7-carbonitrile]"
5,6.39,"C[C@@H]1CN(c2ccc(C#N)n3nccc23)C[C@H](CN2CCCC3(CCNCC3)C2)O1 [Example 32, 4-[(2S,6R)-2-(2,9-diazaspiro[5.5]undecan-2-ylmethyl)-6-methyl-morpholin-4-yl]pyrazolo[1,5-a]pyridine-7-carbonitrile]"
6,6.34,"C[C@@H]1CN(c2ccc(C#N)n3nccc23)C[C@H](CN2CCCC3(CNC3)C2)O1 [Example 33, 4-[(2S,6R)-2-(2,6-diazaspiro[3.5]nonan-6-ylmethyl)-6-methyl-morpholin-4-yl]pyrazolo[1,5-a]pyridine-7-carbonitrile]"
7,7.06,"C[C@@H]1CN(c2ccc(C#N)n3nccc23)C[C@H](CN2CCC(N)C(F)(F)C2)O1 (stereo partly drawn) [Example 34, 4-[(2S,6R)-2-[(4-amino-3,3-difluoro-1-piperidyl)methyl]-6-methyl-morpholin-4-yl]pyrazolo[1,5-a]pyridine-7-carbonitrile]"
8,6.08,"C[C@@H]1CN(c2ccc(C#N)n3nccc23)C[C@H](CN2CC(N)C(F)(F)C2)O1 (stereo partly drawn) [Example 35, 4-[(2S,6R)-2-[(4-amino-3,3-difluoro-pyrrolidin-1-yl)methyl]-6-methyl-morpholin-4-yl]pyrazolo[1,5-a]pyridine-7-carbonitrile]"
9,7.42,"C[C@@H]1CN(c2ccc(C#N)n3nccc23)C[C@H](CN2CC3CCC(C2)C3N)O1 (stereo partly drawn) [Example 36, 4-[(2S,6R)-2-[(8-amino-3-azabicyclo[3.2.1]octan-3-yl)methyl]-6-methyl-morpholin-4-yl]pyrazolo[1,5-a]pyridine-7-carbonitrile]"
10,6.92,"C[C@@H]1CN(c2ccc(C#N)n3nccc23)C[C@H](CN2CCN[C@H](c3ccccc3)C2)O1 [Example 38, 4-[(2R,6S)-2-methyl-6-[[(3R)-3-phenylpiperazin-1-yl]methyl]morpholin-4-yl]pyrazolo[1,5-a]pyridine-7-carbonitrile]"
11,6.70,"C[C@@H]1CN(c2ccc(C#N)n3nccc23)C[C@H](CN2CCC(N3CCNCC3)CC2)O1 [Example 39, 4-[(2R,6S)-2-methyl-6-[(4-piperazin-1-yl-1-piperidyl)methyl]morpholin-4-yl]pyrazolo[1,5-a]pyridine-7-carbonitrile]"
12,7.02,"C[C@@H]1CN(c2ccc(C#N)n3nccc23)C[C@H](CN2CCNC3(CC3)C2)O1 [Example 40, 4-[(2S,6R)-2-(4,7-diazaspiro[2.5]octan-7-ylmethyl)-6-methyl-morpholin-4-yl]pyrazolo[1,5-a]pyridine-7-carbonitrile]"
13,7.11,"C[C@@H]1CN(c2ccc(C#N)n3nccc23)C[C@H](CN2CCC3NCCC3C2)O1 (stereo partly drawn) [Example 41, 4-[(2S,6R)-2-(1,2,3,3a,4,6,7,7a-octahydropyrrolo[3,2-c]pyridin-5-ylmethyl)-6-methyl-morpholin-4-yl]pyrazolo[1,5-a]pyridine-7-carbonitrile]"
14,7.01,"C[C@@H]1CN(c2ccc(C#N)n3nccc23)C[C@H](CN2CCC3(CCCCN3)C2)O1 (stereo partly drawn) [Example 42, 4-[(2S,6R)-2-(2,6-diazaspiro[4.5]decan-2-ylmethyl)-6-methyl-morpholin-4-yl]pyrazolo[1,5-a]pyridine-7-carbonitrile]"
15,6.62,"C[C@@H]1CN(c2ccc(C#N)n3nccc23)C[C@H](CN2CCCC3(CCNC3)C2)O1 (stereo partly drawn) [Example 44, 4-[(2S,6R)-2-(2,7-diazaspiro[4.5]decan-7-ylmethyl)-6-methyl-morpholin-4-yl]pyrazolo[1,5-a]pyridine-7-carbonitrile]"
16,6.60,"C[C@@H]1CN(c2ccc(C#N)n3nccc23)C[C@H](CN2CC3CCCNC3C2)O1 (stereo partly drawn) [Example 45, 4-[(2S,6R)-2-(1,2,3,4,4a,5,7,7a-octahydropyrrolo[3,4-b]pyridin-6-ylmethyl)-6-methyl-morpholin-4-yl]pyrazolo[1,5-a]pyridine-7-carbonitrile]"
17,6.22,"C[C@@H]1CN(c2ccc(C#N)n3nccc23)C[C@H](CN2CC3(CCCNCC3)C2)O1 [Example 46, 4-[(2S,6R)-2-(2,8-diazaspiro[3.6]decan-2-ylmethyl)-6-methyl-morpholin-4-yl]pyrazolo[1,5-a]pyridine-7-carbonitrile]"
18,6.74,"C[C@@H]1CN(c2ccc(C#N)n3nccc23)C[C@H](CN2CCC3(CCCCN3)CC2)O1 [Example 47, 4-[(2S,6R)-2-(1,9-diazaspiro[5.5]undecan-9-ylmethyl)-6-methyl-morpholin-4-yl]pyrazolo[1,5-a]pyridine-7-carbonitrile]"
19,6.52,"C[C@@H]1CN(c2ccc(C#N)n3nccc23)C[C@H](CN2CCC3(CCN3)CC2)O1 [Example 48, 4-[(2S,6R)-2-(1,7-diazaspiro[3.5]nonan-7-ylmethyl)-6-methyl-morpholin-4-yl]pyrazolo[1,5-a]pyridine-7-carbonitrile]"
20,6.74,"C[C@@H]1CN(c2ccc(C#N)n3nccc23)C[C@H](CN2CC3CCNCC3C2)O1 (stereo partly drawn) [Example 49, 4-[(2S,6R)-2-(1,3,3a,4,5,6,7,7a-octahydropyrrolo[3,4-c]pyridin-2-ylmethyl)-6-methyl-morpholin-4-yl]pyrazolo[1,5-a]pyridine-7-carbonitrile]"
21,6.41,"CC1CC(N)CCN1C[C@H]1CN(c2ccc(C#N)n3nccc23)C[C@@H](C)O1 (stereo partly drawn) [Example 51, 4-[(2S,6R)-2-[(4-amino-2-methyl-1-piperidyl)methyl]-6-methyl-morpholin-4-yl]pyrazolo[1,5-a]pyridine-7-carbonitrile]"

row,SMILES,pIC50
1,"C[C@@H]1CN(c2ccc(C#N)n3nccc23)C[C@H](CN2CC3CCC(C2)N3)O1 [Example 31, 4-[(2S,6R)-2-(3,8-diazabicyclo[3.2.1]octan-3-ylmethyl)-6-methyl-morpholin-4-yl]pyrazolo[1,5-a]pyridine-7-carbonitrile]",7.28
2,"C[C@@H]1CN(c2ccc(C#N)n3nccc23)C[C@H](CN2C3CCC2CC(N)C3)O1 (stereo partly drawn) [Example 37, 4-[(2S,6R)-2-[(3-amino-8-azabicyclo[3.2.1]octan-8-yl)methyl]-6-methyl-morpholin-4-yl]pyrazolo[1,5-a]pyridine-7-carbonitrile]",6.72
3,"C[C@@H]1CN(c2ccc(C#N)n3nccc23)C[C@H](CN2C3CCC2CNC3)O1 [Example 43, 4-[(2S,6R)-2-(3,8-diazabicyclo[3.2.1]octan-8-ylmethyl)-6-methyl-morpholin-4-yl]pyrazolo[1,5-a]pyridine-7-carbonitrile]",7.23
